Six compounds from patent US12338198B2, “Cancer cell growth inhibiting composition and processed food” (HAGIHARA FARM PRODUCTION INSTITUTE CO., LTD., priority 2019, dated 2025) can be followed below.

The test system of this experiment is Jurkat cells. As to the kind of experiment: Effect of compounds on growth of human leukemic T-cell line Jurkat cells (Trypan Blue live cell count). It counts as cell-based. The settings on record: for IC50: Homo sapiens, growth of Jurkat cells, viable cell count; for cancer cell growth inhibiting effect compared with phytol: Jurkat cells, 24-72 hours. As to the method:
Human leukemic T-cell line Jurkat cells were obtained from the RIKEN BioResource Research Center (Tsukuba-shi, Ibaraki Prefecture). The cells were cultured in RPMI1640 medium (Wako Pure Chemical Industries, Ltd., Osaka-shi, Osaka Prefecture) containing 10% fetal bovine serum (Thermo Fisher Scientifics, K.K., MA, USA), 100 U/mL penicillin and 100 μg/mL spletomycin (both Life Technologies, Carlsbad, CA, USA) at 37° C. in a 95% air-5% CO2 environment.
Jurkat cells were adjusted to 1×10^5 cells/mL and seeded in 24-well multi-plates (Thermo Fisher Scientifics K. K.) by 500 μL/well. After seeding, phytol, aminophytol, amidophytol, methylaminophytol, hexylaminophytol, and acetamidophytol were adjusted with distilled water to a final concentration of 10 μM, 25 μM, and 50 μM respectively, and then added. Note that no compound is added to a control. After adding respective compounds, the cells were stained with Tripan Blue (Life Technologies) after 24, 48, and 72 hours, and live cells were counted using a hemocytometer.
A horizontal axis represents culture time (hours) and a vertical axis represents the number of viable cells (×10^5 cells/mL). “Cont” in the figures represents the control, and “10 μM,” “25 μM,” and “50 μM” represent concentration. FIG. 1 is for phytol; FIG. 2 is for aminophytol; FIG. 3 is for amidophytol; FIG. 4 is for monomethylaminophytol; FIG. 5 is for monohexylaminophytol; and FIG. 6 is for acetamidophytol.

The mark [1] stands for this setting: after 24 hours at a concentration of 25 μM.

As for `CC(=O)NC/C=C(\C)CCC[C@H](C)CCC[C@H](C)CCCC(C)C` (racemic) [acetamidophytol, (E)-N-(3,7,11,15-tetramethylhexadec-2-en-1-yl)acetamide], the IC50 – broadly, the concentration that inhibits the measured activity by half – was 21.2 µM. Also, where the note is “10, 25, 50 μM”, the “cancer cell growth inhibiting effect compared with phytol” value is given as “more effect than phytol”. Besides, under “at a concentration of 25 μM”, the viable cells entry is “viable cells could still be identified”. In addition, the viable cells entry (at a concentration of 50 μM) is recorded as “few cells survived”.
As for `C/C(=C\C(N)=O)CCC[C@H](C)CCC[C@H](C)CCCC(C)C` (racemic) [amidophytol, (E)-3,7,11,15-tetramethylhexadec-2-enamide], the midpoint of inhibition, the IC50, lay at 9.6 µM. Moreover, for the setting “10, 25, 50 μM”, the “cancer cell growth inhibiting effect compared with phytol” value is “more effect than phytol”. Moreover, the viable cells result under setting [1] is given as “few cells survived”.
On the same counts, the results for `C/C(=C\CN)CCC[C@H](C)CCC[C@H](C)CCCC(C)C` (racemic) [aminophytol, (E)-3,7,11,15-tetramethylhexadec-2-en-1-amine] are 3.8 µM, “more effect than phytol” and “few cells survived”.
In the same order, the values of `CCCCCCNC/C=C(\C)CCC[C@H](C)CCC[C@H](C)CCCC(C)C` (racemic) [monohexylaminophytol, (E)-N-hexyl-3,7,11,15-tetramethylhexadec-2-en-1-amine] are 8.5 µM, “more effect than phytol” and “few cells survived”.
In the case of `CNC/C=C(\C)CCC[C@H](C)CCC[C@H](C)CCCC(C)C` (racemic) [monomethylaminophytol, (E)-N,3,7,11,15-pentamethylhexadec-2-en-1-amine], the IC50 was found to be 6.6 µM. In addition, where the note is “10, 25, 50 μM”, the “cancer cell growth inhibiting effect compared with phytol” value was “more effect than phytol”. Besides, the viable cells result under setting [1] is “few cells survived”.
The compound `C/C(=C\CO)CCC[C@H](C)CCC[C@H](C)CCCC(C)C` [phytol, reference compound] displayed an IC50 of 29.8 µM. For the same compound, the “growth of Jurkat cells (cancerous cells)” value (10, 25, 50 μM, 24, 48, 72 hours, concentration-dependence observed) is listed as “inhibited the growth”. Further, under “after 72 hours at a concentration of 50 μM”, the viable cells result is given as “viable cells could still be identified”.
